Broadly, the EC50 is the concentration needed to bring the measured effect to its halfway point. A low value points to an effect from little substance. A word on the IC50: it is the point on the concentration scale where inhibition reaches its midpoint. In general, half-life refers to the time in which the quantity being followed falls by half. A high value points to slow loss.

Experimental findings from ChEMBL document CHEMBL4837229 (Eur J Med Chem, 2021) are described below.

For series [1], the system named is Influenza A virus. Put plainly: microbe, parasite or virus in culture. The settings on record: A/California/04/2009(H1N1), MDCK, 48 h.
Series [2] can be described thus: Inhibition of Influenza A virus (A/California/04/2009(H1N1)) Neuraminidase using MUNANA as substrate preincubated for 5 to 15 mins followed by substrate addition and measured after 30 mins by fluorescence spectrophotometric method.
The target in series [3] is Neuraminidase (Influenza A virus, UniProt B4URF0). Set-up: species or system Influenza A virus (A/Anhui/1/2005(H5N1)).
Neuraminidase, sequence (B4URF0 whole entry): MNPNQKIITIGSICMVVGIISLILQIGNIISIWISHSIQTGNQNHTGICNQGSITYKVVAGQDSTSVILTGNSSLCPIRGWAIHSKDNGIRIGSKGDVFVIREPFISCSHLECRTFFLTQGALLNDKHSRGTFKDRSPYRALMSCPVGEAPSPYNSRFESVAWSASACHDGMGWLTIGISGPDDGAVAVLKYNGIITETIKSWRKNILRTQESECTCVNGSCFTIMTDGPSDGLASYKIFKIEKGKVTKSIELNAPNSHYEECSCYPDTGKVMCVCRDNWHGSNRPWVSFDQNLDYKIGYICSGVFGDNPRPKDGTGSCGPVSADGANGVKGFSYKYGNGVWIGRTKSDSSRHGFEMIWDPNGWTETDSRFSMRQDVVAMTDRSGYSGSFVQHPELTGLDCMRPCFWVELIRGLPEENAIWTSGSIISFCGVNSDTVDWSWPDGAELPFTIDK
Series [4] in a line: in vitro. The settings on record: rat, liver microsomes.
Series [5] is described as follows: in vitro. Conditions: mouse, liver microsomes. In general terms: Liver microsomes are vesicles of endoplasmic reticulum, rich in cytochrome P450 enzymes.
The nature of series [6]: Stability of the compound in human plasma assessed as parent compound remaining measured after 10 mins. Format: ADME, cell-free. Conditions: read-out: Stabilty.
Series [7] is described as follows: in vitro. Conditions: human, liver microsomes.
A short description of series [8]: Stability of the compound in human plasma assessed as parent compound remaining measured immediately. Format: ADME, cell-free. Conditions: read-out: Stabilty.
Series [9] deals with Influenza A virus. Format: functional, organism-based. Conditions: A/California/04/2009(H1N1), MDCK, time 46.0 hrs.
For series [10], the system named is MDCK. Put plainly: Cytotoxicity against MDCK cells assessed as reduction in cell viability at 250 uM. Format: cell-based, Canis lupus familiaris. Conditions: dog.
Series [11] in a line: Stability of the compound in human plasma assessed as parent compound remaining measured after 30 mins. Format: ADME, cell-free. The settings on record: read-out: Stabilty.
Series [12] in a line: Stability of the compound in human plasma assessed as parent compound remaining measured after 60 mins. Format: ADME, cell-free. Conditions: read-out: Stabilty.
Series [13] is described as follows: Stability of the compound in human plasma assessed as parent compound remaining measured after 120 mins. Format: ADME, cell-free. The settings on record: read-out: Stabilty.

Active and inactive are the calls of the source. No cut-off for these calls is given here.

`CCC(CC)O[C@@H]1C=C(C(=O)O)C[C@H](N)[C@H]1NC(C)=O` [OSELTAMIVIR CARBOXYLATE] showed a 50% effective concentration (EC50) in [1] of 1.4 nM.

Take `CCC(CC)O[C@@H]1C=C(C(=O)O)C[C@H](NC(=O)NNC)[C@H]1NC(C)=O`: inhibition in series [2] was half-maximal at 249 nM (IC50).

For the molecule `CCC(CC)O[C@@H]1C=C(C(=O)O)C[C@H](NC(=O)NNCc2ccc(OC)cc2)[C@H]1NC(C)=O`, it took 567 nM to reach half-maximal inhibition in [3] (IC50).

`CCC(CC)O[C@@H]1C=C(C(=O)O)C[C@H](NC(=O)NNCc2ccccc2Cl)[C@H]1NC(C)=O` displayed a half-inhibitory concentration (IC50) in [3] of 586 nM.

As to `CCCCNNC(=O)N[C@H]1CC(C(=O)O)=C[C@@H](OC(CC)CC)[C@@H]1NC(C)=O`, the IC50 in series [3] was 38.3 nM; in series [2], 332 nM.

With `CCC(CC)O[C@@H]1C=C(C(=O)O)C[C@H](NC(=O)NNCc2ccccc2)[C@H]1NC(C)=O`, half-maximal inhibition in [3] (IC50) required 4350 nM. This lies in the single-digit micromolar range.

Turning to `CCCCCCCNNC(=O)N[C@H]1CC(C(=O)O)=C[C@@H](OC(CC)CC)[C@@H]1NC(C)=O`, in [3], the IC50 was 575 nM. This IC50 is about 7.6-fold lower than that of the molecule before.

In turn, `CCCCCCCCNNC(=O)N[C@H]1CC(C(=O)O)=C[C@@H](OC(CC)CC)[C@@H]1NC(C)=O` registered an IC50 in series [3] of more than 10000 nM.

In [3], `CCC(CC)O[C@@H]1C=C(C(=O)O)C[C@H](NC(=O)NNC/C=C/c2ccccc2)[C@H]1NC(C)=O` returned an IC50 of 7850 nM.

In [3], `CCC(CC)O[C@@H]1C=C(C(=O)O)C[C@H](NC(=O)NNCc2cccc(OC)c2)[C@H]1NC(C)=O` showed an IC50 of 326 nM.

In turn, `CCC(CC)O[C@@H]1C=C(C(=O)O)C[C@H](NC(=O)NNCc2ccc(Cl)cc2)[C@H]1NC(C)=O` came in with a half-maximal inhibitory concentration (IC50) in [3] of 875 nM.

`CCNNC(=O)N[C@H]1CC(C(=O)O)=C[C@@H](OC(CC)CC)[C@@H]1NC(C)=O`: in series [3], the IC50 is 576 nM.

Take `CCC(CC)O[C@@H]1C=C(C(=O)O)C[C@H](NC(=O)NNCC2CC2)[C@H]1NC(C)=O`: the 50% inhibitory concentration (IC50) in series [3] stood at 4110 nM.

The molecule `CCC(CC)O[C@@H]1C=C(C(=O)O)C[C@H](NC(=O)NNCCC(C)C)[C@H]1NC(C)=O` registered a half-maximal inhibitory concentration (IC50) in series [3] of 1530 nM.

In turn, `CCCCCCNNC(=O)N[C@H]1CC(C(=O)O)=C[C@@H](OC(CC)CC)[C@@H]1NC(C)=O` yielded an IC50 in series [3] of 4980 nM.

Consider `CCCNNC(=O)N[C@H]1CC(C(=O)O)=C[C@@H](OC(CC)CC)[C@@H]1NC(C)=O`, for which the IC50 in [3] was 241 nM.

In turn, `CCC(CC)O[C@@H]1C=C(C(=O)O)C[C@H](NC(=O)NNCCCc2ccccc2)[C@H]1NC(C)=O` displayed an IC50 in series [3] of 9150 nM.

For the molecule `CCC(CC)O[C@@H]1C=C(C(=O)O)C[C@H](NC(=O)NNCC(C)C)[C@H]1NC(C)=O`, the midpoint of inhibition in series [3], the IC50, lay at 2320 nM.

`CCCCCNNC(=O)N[C@H]1CC(C(=O)O)=C[C@@H](OC(CC)CC)[C@@H]1NC(C)=O` came in with an IC50 in [3] of 1100 nM.

In series [3], `CCC(CC)O[C@@H]1C=C(C(=O)O)C[C@H](NC(=O)NNCc2cccc(Cl)c2)[C@H]1NC(C)=O` showed an IC50 of 5850 nM.

Consider `CCC(CC)O[C@@H]1C=C(C(=O)O)C[C@H](NC(N)=O)[C@H]1NC(C)=O`, for which the IC50 in [3] is 254 nM; in [2], 8.7 nM.

Consider `CCC(CC)O[C@@H]1C=C(C(=O)O)C[C@H](NC(=O)NN)[C@H]1NC(C)=O`, for which the half-life was 45.9 min in series [4], 49.7 min in series [5] and 72.9 min in series [7]. Besides, in series [1], the half-maximal effective concentration (EC50) amounted to 7.8 nM. Besides, in [6], the remaining at 10 min was 88.6%. Also, the half-inhibitory concentration (IC50) in series [3] was 26.8 nM; in series [2], 11.9 nM. The remaining at 0 min in series [8] is 100%. Further, in series [9], the result was inactive. Moreover, the Activity result in [10] is recorded as “Non-Toxic”. Besides, in series [11], the remaining at 0.5 h was 98.8%. Moreover, the remaining at 1 h in series [12] turned out to be 99.5%. Also, the remaining at 2 h in series [13] turned out to be 107%.

In turn, `CCC(CC)O[C@@H]1C=C(C(=O)O)C[C@H](NC(=O)NNCCc2ccccc2)[C@H]1NC(C)=O` had a half-inhibitory concentration (IC50) in series [3] of 2460 nM.

In series [3], `CCC(CC)O[C@@H]1C=C(C(=O)O)C[C@H](NC(=O)NNC2CCOCC2)[C@H]1NC(C)=O` registered an IC50 of 1210 nM.

Take `CCC(CC)O[C@@H]1C=C(C(=O)O)C[C@H](NC(=O)NNCc2ccccc2OC)[C@H]1NC(C)=O`: half-maximal inhibition in [3] (IC50) was put at 2760 nM.
